{"source": "paper PMC10502144", "about": "“Anti-methicillin-resistant Staphylococcus aureus activity and safety evaluation of 14-O-[(5-ethoxycarbonyl-4,6-dimethylpyrimidine-2-yl) thioacetyl] mutilin (EDT)” (Scientific Reports, 2023)", "key": {"[1]": {"system": "clinical isolates of MRSA", "test": "MIC by broth serial-dilution against 48 clinical isolates of MRSA", "type": "cell-based, methicillin-resistant Staphylococcus aureus", "description": "The tests against 48 clinical isolates of MRSA from dairy farms in 4 different provinces in China[37] were conducted in triplicate, using broth serial-dilution method in 96-well plates according to CLSI reference methods. Briefly, EDT and tiamulin fumarate used as referent drug were dissolved in 25% dimethyl sulfoxide (DMSO) to a solution with concentration of 64 μg/mL. The obtained 100 μL solutions were then added into the first column of the 96-well plate, and diluted to the tenth well with serial twofold dilutions. The last two wells were used as positive controls. The 100 μL bacterial suspension was diluted in MHB to give a final organism density of to 10^5 ~ 10^6 colony-forming unit (CFU) per 1 mL and added to all the wells, followed by incubating at 37 °C for 24 h. […] The results were expressed as an average of the MICs obtained from three independent experiments."}, "[2]": {"test": "Cytotoxicity assay (CCK-8), HepG2", "type": "cell-based", "settings": "human, HepG2 cells", "description": "Cytotoxicity of EDT and tiamulin was studied against human hepatocellular carcinoma cells (HepG2) and human embryonic kidney 293T (HEK293T) cells following a protocol as published in our earlier reports[41],[42]. Cells were counted and inoculated into 96-well plates with approximately10^5 cells density for incubating 24 h at 37 °C. […] The same procedure was repeated three times. The percentages of cell viability were calculated by the formula: Cell viability (%) = [Asample ‒ Anegative]/[Apositve ‒ Anegative] × 100%."}, "[3]": {"system": "MRSA-337371", "test": "microbe, parasite or virus in culture", "type": "cell-based, methicillin-resistant Staphylococcus aureus", "settings": "for MIC: Staphylococcus aureus, MRSA", "description": "We performed resistance induction tests on EDT and tiamulin which was used as a referent drug. […] Finally, MRSA was cultured for 30 generations with the same procedure. At the 31st generation, drugs were removed until 40th generation and MICs were determined in each generation."}}, "note": "Where two headings read alike, the source gives them in different places.", "data": [{"smiles": "C=CC1(C)CC(OC(=O)CSc2nc(C)c(C(=O)OCC)c(C)n2)C2(C)C(C)CCC3(CCC(=O)C32)C(C)C1O", "note": "(centres unmarked) [EDT, 14-O-[(5-ethoxycarbonyl-4,6-dimethylpyrimidine-2-yl)thioacetyl] mutilin]", "values": [{"measurement": "MIC", "setting": "[1]; Staphylococcus aureus, MRSA, strain ZY9", "value": 0.0313, "unit": "µg/mL"}, {"measurement": "MIC values against 48 strains", "setting": "[1]; range over 48 clinical isolates of MRSA", "value": "0.0313 to 0.125", "unit": "µg/mL"}, {"measurement": "viability at 6 h, 100 µM", "setting": "[2]; HepG2, 100 μM, read-out: cell viability", "value": 99.7, "unit": "%"}, {"measurement": "CC50 at 6 h", "setting": "[2]; HepG2, 200 μM converted to μg/mL", "value": "> 115", "unit": "µg/mL"}, {"measurement": "viability at 6 h, 200 µM", "setting": "[2]; HepG2, 200 μM, read-out: cell viability", "value": 77.5, "unit": "%"}, {"measurement": "CC50 at 6 h", "setting": "[2]; HepG2, deduced from Fig. 5", "value": "> 200", "unit": "µM"}, {"measurement": "increase of MIC", "setting": "[3]; 30 generations under the subinhibitory concentration (1/4 MIC)", "value": "fourfold"}, {"measurement": "MIC", "setting": "[3]; 24 h, read-out: MIC in the resistance development study, day 1", "value": 0.0313, "unit": "µg/mL"}, {"measurement": "MIC", "setting": "[3]; 48 h, read-out: MIC in the resistance development study, day 2", "value": 0.0313, "unit": "µg/mL"}, {"measurement": "MIC", "setting": "[3]; 72 h, read-out: MIC in the resistance development study, day 3", "value": 0.0313, "unit": "µg/mL"}, {"measurement": "MIC", "setting": "[3]; 96 h, read-out: MIC in the resistance development study, day 4", "value": 0.0313, "unit": "µg/mL"}, {"measurement": "MIC", "setting": "[3]; 120 h, read-out: MIC in the resistance development study, day 5", "value": 0.0313, "unit": "µg/mL"}, {"measurement": "MIC", "setting": "[3]; 144 h, read-out: MIC in the resistance development study, day 6", "value": 0.0313, "unit": "µg/mL"}, {"measurement": "MIC", "setting": "[3]; 168 h, read-out: MIC in the resistance development study, day 7", "value": 0.0313, "unit": "µg/mL"}, {"measurement": "MIC", "setting": "[3]; 192 h, read-out: MIC in the resistance development study, day 8", "value": 0.0313, "unit": "µg/mL"}, {"measurement": "MIC", "setting": "[3]; 216 h, read-out: MIC in the resistance development study, day 9", "value": 0.0313, "unit": "µg/mL"}, {"measurement": "MIC", "setting": "[3]; 240 h, read-out: MIC in the resistance development study, day 10", "value": 0.0313, "unit": "µg/mL"}, {"measurement": "MIC", "setting": "[3]; 264 h, read-out: MIC in the resistance development study, day 11", "value": 0.0313, "unit": "µg/mL"}, {"measurement": "MIC", "setting": "[3]; 288 h, read-out: MIC in the resistance development study, day 12", "value": 0.0625, "unit": "µg/mL"}, {"measurement": "MIC", "setting": "[3]; 312 h, read-out: MIC in the resistance development study, day 13", "value": 0.0625, "unit": "µg/mL"}, {"measurement": "MIC", "setting": "[3]; 336 h, read-out: MIC in the resistance development study, day 14", "value": 0.0313, "unit": "µg/mL"}, {"measurement": "MIC", "setting": "[3]; 360 h, read-out: MIC in the resistance development study, day 15", "value": 0.0313, "unit": "µg/mL"}, {"measurement": "MIC", "setting": "[3]; 384 h, read-out: MIC in the resistance development study, day 16", "value": 0.0313, "unit": "µg/mL"}, {"measurement": "MIC", "setting": "[3]; 408 h, read-out: MIC in the resistance development study, day 17", "value": 0.0625, "unit": "µg/mL"}, {"measurement": "MIC", "setting": "[3]; 432 h, read-out: MIC in the resistance development study, day 18", "value": 0.0625, "unit": "µg/mL"}, {"measurement": "MIC", "setting": "[3]; 456 h, read-out: MIC in the resistance development study, day 19", "value": 0.0625, "unit": "µg/mL"}, {"measurement": "MIC", "setting": "[3]; 480 h, read-out: MIC in the resistance development study, day 20", "value": 0.125, "unit": "µg/mL"}, {"measurement": "MIC", "setting": "[3]; 504 h, read-out: MIC in the resistance development study, day 21", "value": 0.125, "unit": "µg/mL"}, {"measurement": "MIC", "setting": "[3]; 528 h, read-out: MIC in the resistance development study, day 22", "value": 0.125, "unit": "µg/mL"}, {"measurement": "MIC", "setting": "[3]; 552 h, read-out: MIC in the resistance development study, day 23", "value": 0.125, "unit": "µg/mL"}, {"measurement": "MIC", "setting": "[3]; 576 h, read-out: MIC in the resistance development study, day 24", "value": 0.125, "unit": "µg/mL"}, {"measurement": "MIC", "setting": "[3]; 600 h, read-out: MIC in the resistance development study, day 25", "value": 0.125, "unit": "µg/mL"}, {"measurement": "MIC", "setting": "[3]; 624 h, read-out: MIC in the resistance development study, day 26", "value": 0.125, "unit": "µg/mL"}, {"measurement": "MIC", "setting": "[3]; 648 h, read-out: MIC in the resistance development study, day 27", "value": 0.125, "unit": "µg/mL"}, {"measurement": "MIC", "setting": "[3]; 672 h, read-out: MIC in the resistance development study, day 28", "value": 0.125, "unit": "µg/mL"}, {"measurement": "MIC", "setting": "[3]; 696 h, read-out: MIC in the resistance development study, day 29", "value": 0.125, "unit": "µg/mL"}, {"measurement": "MIC", "setting": "[3]; MRSA-337371, MIC used to set 1×-8× MIC in the PAE test", "value": 0.0313, "unit": "µg/mL"}, {"measurement": "MIC", "setting": "[3]; read-out: MIC in the resistance development study, day 30", "value": 0.125, "unit": "µg/mL"}, {"measurement": "MIC", "setting": "[3]; read-out: MIC in the resistance development study, day 31, drugs removed", "value": 0.125, "unit": "µg/mL"}, {"measurement": "MIC", "setting": "[3]; read-out: MIC in the resistance development study, day 32, drugs removed", "value": 0.125, "unit": "µg/mL"}, {"measurement": "MIC", "setting": "[3]; read-out: MIC in the resistance development study, day 33, drugs removed", "value": 0.0625, "unit": "µg/mL"}, {"measurement": "MIC", "setting": "[3]; read-out: MIC in the resistance development study, day 34, drugs removed", "value": 0.0625, "unit": "µg/mL"}, {"measurement": "MIC", "setting": "[3]; read-out: MIC in the resistance development study, day 35, drugs removed", "value": 0.0313, "unit": "µg/mL"}, {"measurement": "MIC", "setting": "[3]; read-out: MIC in the resistance development study, day 36, drugs removed", "value": 0.0313, "unit": "µg/mL"}, {"measurement": "MIC", "setting": "[3]; read-out: MIC in the resistance development study, day 37, drugs removed", "value": 0.0313, "unit": "µg/mL"}, {"measurement": "MIC", "setting": "[3]; read-out: MIC in the resistance development study, day 38, drugs removed", "value": 0.0313, "unit": "µg/mL"}, {"measurement": "MIC", "setting": "[3]; read-out: MIC in the resistance development study, day 39, drugs removed", "value": 0.0313, "unit": "µg/mL"}, {"measurement": "MIC", "setting": "[3]; read-out: MIC in the resistance development study, day 40, drugs removed", "value": 0.0313, "unit": "µg/mL"}, {"measurement": "sensitivity of MRSA after removing drugs", "setting": "[3]; after removing drugs and culturing for additional 10 generations", "value": "recovered the initial sensitivity"}, {"measurement": "increase in the MIC values", "setting": "[3]; at 22 generations", "value": "fourfold"}]}]}
